Measured values as given in a melting point compilation (Tetko et al.; mined from patent text by program, amines drawn as free bases though some values may be those of a salt).

Row | SMILES | melting point
1 | c1ccc(CN(CCNC(c2ccccc2)c2ccccc2)Cc2ccccc2)cc1 | 89 to 91 °C
2 | CCC(Oc1ccc(CCC(=O)c2ccc(-c3ccc(C(F)(F)F)cc3)s2)cc1Br)C(=O)O (stereo not given) | 126 to 128 °C
3 | Cn1cc(C2=C(C3CCCCC3)C(=O)NC2=O)c2ccccc21 | 224 to 225 °C
4 | C#CCOc1cc(C2(C(F)(F)F)CC(=O)NC(OCC)=N2)c(F)cc1Br (stereo not given) | 101 to 102 °C
5 | COC(=O)c1c(O)cc(OCC(O)c2ccc3c(c2)C(C)(C)CCC3(C)C)cc1O (stereo not given) | 127 to 128 °C
6 | CCCC1(CCC)CCC2(CC1)CC(=O)OC(=O)C2 | 91 to 93 °C
7 | CCOc1nc2c(cnn2CC)nc1C(=O)O | 128 to 130 °C
8 | S=c1[nH]c2cccnc2n1-c1ccc2c(c1)OCO2 | 278 °C
9 | CCC1CC(=O)N(Cc2cccc(C(=O)NC3CCCC3)c2)N=C1c1ccc(OC)c(OC2CCCC2)c1 (stereo not given) | 153 °C
10 | O=Cc1ccc(OC2CCCC2)c(O)c1Br | 107 to 109 °C
11 | Cc1c(Cl)c(Cl)c(Cl)c(CCl)c1Cl | 88 to 89 °C
12 | N#Cc1c(N2CCCCC2)cc(-c2ccc(F)cc2)c2c1C(=O)c1ccccc1-2 | 152 to 154 °C
13 | CN1C(=O)NC(c2ccccc2)c2cc3c(cc21)OCO3 (stereo not given) | 228 to 230 °C
14 | Cc1nc(-c2ccccc2)ncc1CN1CCN(c2ccc(O)cc2)CC1 | 201 to 202 °C
15 | ClCc1cccc2c(-c3ccc(Cl)cc3)nccc12 | 101 to 102 °C
16 | O=C(Cc1ccccc1Nc1c(Cl)cccc1Cl)NO | 164 to 165 °C
17 | Nc1c(Br)cc([N+](=O)[O-])cc1C(F)(F)F | 84 °C
18 | Cc1ccc(OC2CCN(C(=O)C(=O)O)CC2)cc1 | 109 to 112 °C
19 | Cc1oc2ccc(C#N)cc2c1Cl | 132 to 134 °C
20 | COc1cc(N)ccc1NNC=O | 113 to 116 °C
21 | O=C(Cc1ccc(F)cc1)c1c(O)c2cccnc2n(-c2ccccc2)c1=O | 185 to 187 °C
22 | ClCc1ccc2cc(Cl)ccc2c1 | 107 to 110 °C
23 | CCCCC(=O)Nc1cscc1N | 110 °C
24 | CC(C)NC(=O)c1c(NC(=O)c2cc(C(F)(F)F)nn2-c2ncccc2Cl)ccc2cc[nH]c12 | 240 to 242 °C
25 | CC(C)c1cccc(C(C)C)c1NC(=O)C(Cc1ccc(OCc2ccccc2)cc1)NCc1ccccc1 (stereo not given) | 127 to 129 °C

Row | SMILES | melting point
26 | Cn1c([N+](=O)[O-])cnc1C1=NOC2CCCCC12 (stereo not given) | 119 to 121 °C
27 | COc1ccc(C2CCCCC2)cc1-c1csc(N)n1 | 67 °C
28 | CCOc1ccc(F)cc1C(=O)c1sc2ncccc2c1N | 130 °C
29 | CCCc1cc2nc(=O)[nH]n2c(C)n1 | 173 °C
30 | Cc1cccc(-c2n[nH]cc2-c2ccc(F)c(-c3ccc(S(N)(=O)=O)s3)c2)n1 | 125 °C
31 | COc1ccc(CC(N(C)S(=O)(=O)c2ccc(C)cc2)C(C)(C)C(=O)Cl)cc1 (stereo not given) | 110 to 111 °C
32 | O=C(O)c1nc(SCc2ccccc2)ccc1SCc1ccccc1 | 129 °C
33 | O=C1O[C@@H](CO)CN1c1ccc(I)c(F)c1 | 116 to 117 °C
34 | CCOC(=O)CCCNC(=O)c1nn(C2CCCCO2)cc1NC(=O)c1ccccn1 (stereo not given) | 114 to 115 °C
35 | CS(=O)(=O)NCc1ccc2[nH]cc(C(=O)C(=O)N3CCCC3)c2c1 | 235 to 236 °C
36 | O=C(Nc1c[nH]nc1C(=O)NCCNc1ccccc1)c1ccccn1 | 184 to 186 °C
37 | CS(=O)(=O)Nc1cc(C(=O)NNC(=O)c2occ(-c3ccccc3)c2-c2ccccc2)ccc1O | 230 to 231 °C
38 | COc1cc(Nc2c(C#N)cnc3cc(-c4ccc(CN5CCN(C)CC5)s4)ccc23)c(Cl)cc1Cl | 206 to 208 °C
39 | O=C(NCC1(O)CCCCCC1)c1cc(-c2ccccc2C(=O)O)ccc1Cl | 113 to 116 °C
40 | COc1ccc(C)c(NC(=O)C(C)=Cc2ccccc2)c1 | 125 to 126 °C
41 | COc1c(O)ccc2oc(-c3ccc(O)cc3)cc12 | 165 to 168 °C
42 | CCOC(=O)C(=O)C(NC(=O)c1ccccc1)c1ccccc1 (stereo not given) | 80 to 83 °C
43 | CNc1ncn(-c2c(C)cccc2Br)c(=O)n1 | 238 to 240 °C
44 | CCCCc1nn(C)c2c1CCc1c(C(N)=O)sc(Oc3ccc4c(c3)OCO4)c1-2 | 161 to 162 °C
45 | Cc1cccc(C2(Cn3cncn3)OCCO2)c1 | 105 °C
46 | N#Cc1cnc2cc(/C=C/CCN3CCOCC3)ccc2c1Nc1ccc(Cl)cc1Cl | 129 to 131 °C
47 | Oc1ccc(-c2nn(CC3CCCCC3)c3c(C(F)(F)F)cccc23)c(O)c1 | 117 to 118 °C
48 | O=C1Cc2cc(C(=O)c3ccccc3)ccc2N1 | 204 to 205 °C
49 | N=c1[nH]c2ccccc2c2nc(-c3ccco3)nn12 | 282 to 285 °C
50 | CCc1cc2c(OCC(=O)OC)cccc2n1Cc1ccccc1 | 89 to 92 °C

Row | SMILES | melting point
51 | N#CC1(CC(=O)O)CCCCC1 | 102 °C
52 | O=C(CC[C@H]1CC[C@H](Nc2ncc3ncnc(Nc4ccc(F)c(Cl)c4)c3n2)CC1)N1CCCC1 | 187 to 192 °C
53 | CC(=O)CCN1c2ccccc2NC(=O)C1C (racemic) | 108 to 109 °C
54 | CCCCCCC#Cc1csc(/C=C/C(=O)O)c1 | 81 °C
55 | CCc1cnc2c(NC(=O)c3c(Cl)cccc3Cl)cccc2c1CCC(=O)O | 236 to 237 °C
56 | CCn1cc(C(=O)O)c(=O)c2cc(F)c(N3CCSCC3)c(F)c21 | > 300 °C
57 | CC(C)(C)NS(=O)(=O)c1ccccc1-c1ccc(CBr)c(F)c1 | 138 to 140 °C
58 | CNC(=O)c1c(I)c(C#N)c(I)c(C(=O)OCC(O)CO)c1I (stereo not given) | 117 to 120 °C
59 | Oc1ccc(-c2nc3cc(O)cc(-c4ccccc4)c3o2)cc1 | 92 °C
60 | CC(=O)C1CCC2C3CCC4CC(O)C(N5CCOC(Cc6ccccc6)C5)CC4(C)C3C(=O)CC12C (stereo not given) | 160 to 162 °C
61 | CCOC(=O)NC(=O)C1c2ccccc2Sc2ccccc21 | 179 to 182 °C
62 | Cc1cn(C)c2c1N(C(=O)CN1CCN(C)CC1)c1ccccc1NC2=O | 205 to 207 °C
63 | COc1ccc(-c2cnc3cc4cnn(C(C)=O)c4cc3n2)cc1F | 261 to 265 °C
64 | O=c1[nH]c2cc(F)c(NCC3CCCCO3)cc2o1 (stereo not given) | 185 to 186 °C
65 | CCCn1cc2c(C3C(=O)Nc4ccc(Cl)cc43)ncnc2n1 (stereo not given) | 302 to 306 °C
66 | CCOc1ncnc2c(N3CCOCC3)nc(N3CCNCC3)nc12 | 168 to 170 °C
67 | CCC(CC)c1ccc(Cl)c2nc3n(c12)CCN3c1ccc(Br)cc1Cl | 165 to 168 °C
68 | CCOC(=O)C1CCc2c1sc(C)c2C(=O)c1ccc(SC)cc1 (stereo not given) | 62 to 64 °C
69 | Cc1nc[nH]c1CN1CCC(Nc2nc3ccccc3n2Cc2ccco2)CC1 | 242 °C
70 | CCCc1nn(-c2ccc(C(F)(F)F)cn2)cc1CCCO | 96 to 97 °C
71 | NC(=O)Cc1ccc2noc(-c3ccc(Cl)cc3)c2c1 | 242 to 244 °C
72 | COC(=O)C1(CCCCCCCCCCCCC2(C(=O)NS(C)(=O)=O)CC2)CC1 | 53.5 to 54.5 °C
73 | O=c1ccn(-c2cccc(C(F)(F)F)c2)nc1-c1ccsc1-c1ccccc1 | 167 to 168 °C
74 | CCCCCCCCCCC#CC#CCCCCCCCCC(=O)O | 57 to 58 °C
75 | O=C(O)c1[nH]c2cc(Cl)cc(Cl)c2c1C=C1NC(=O)N(c2ccccc2)C1=O | > 250 °C
